From ChEMBL document CHEMBL1909046, “DrugMatrix in vitro pharmacology data”

Key:
D(3) dopamine receptor = D(3) dopamine receptor (Homo sapiens, UniProt P35462); experiment: DRUGMATRIX: Dopamine D3 radioligand binding (ligand: [3H] Spiperone); assay type: cell membranes, CHO, Membrane; details: for Ki: read-out: Ki
Endothelin-1 receptor = biological target: T1, Endothelin-1 receptor (Homo sapiens, UniProt P25101); assay type: cell membranes, Membrane; details: cho-k1; also: in other assays of this panel Not Active means under 50% inhibition at 10 µM
T1 sequence (P25101 whole entry): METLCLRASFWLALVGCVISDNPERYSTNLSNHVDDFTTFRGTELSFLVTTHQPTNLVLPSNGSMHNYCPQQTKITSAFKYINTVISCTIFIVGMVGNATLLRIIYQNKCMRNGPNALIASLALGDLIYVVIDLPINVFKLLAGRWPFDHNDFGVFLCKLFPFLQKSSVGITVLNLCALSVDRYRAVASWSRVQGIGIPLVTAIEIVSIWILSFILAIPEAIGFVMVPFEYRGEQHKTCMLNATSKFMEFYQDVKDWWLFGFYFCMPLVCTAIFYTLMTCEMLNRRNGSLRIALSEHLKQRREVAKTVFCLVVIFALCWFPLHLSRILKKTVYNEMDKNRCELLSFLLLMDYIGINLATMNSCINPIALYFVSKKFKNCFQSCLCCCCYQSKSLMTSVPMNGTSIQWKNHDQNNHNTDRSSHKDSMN

[1] = biological target: T2, Neuropeptide Y receptor type 2 (Homo sapiens, UniProt P49146); assay type: cell membranes, KAN-TS, Membrane; also: in other assays of this panel Not Active means under 50% inhibition at 10 µM
T2 sequence (P49146 whole entry): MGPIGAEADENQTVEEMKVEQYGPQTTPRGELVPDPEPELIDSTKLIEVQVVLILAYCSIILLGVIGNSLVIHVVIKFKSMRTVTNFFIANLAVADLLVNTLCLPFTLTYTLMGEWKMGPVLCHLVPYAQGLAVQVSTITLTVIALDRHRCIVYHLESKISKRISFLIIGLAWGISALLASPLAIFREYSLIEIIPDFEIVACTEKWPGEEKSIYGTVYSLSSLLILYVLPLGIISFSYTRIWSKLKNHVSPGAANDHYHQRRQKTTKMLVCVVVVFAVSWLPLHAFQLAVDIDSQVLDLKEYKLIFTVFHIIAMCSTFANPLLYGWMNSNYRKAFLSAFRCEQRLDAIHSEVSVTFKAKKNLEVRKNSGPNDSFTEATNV

[2] = biological target: Matrix metalloproteinase-9 (Homo sapiens, UniProt P14780); experiment: biochemical; assay type: cell-based;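 also: inhibition of isolated MMP-9 enzyme activity toward a synthetic peptide substrate, from the DrugMatrix protease screening panel; in other assays of this panel Not Active means under 50% inhibition at 10 µM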
Matrix metalloproteinase-9, sequence (P14780 whole entry): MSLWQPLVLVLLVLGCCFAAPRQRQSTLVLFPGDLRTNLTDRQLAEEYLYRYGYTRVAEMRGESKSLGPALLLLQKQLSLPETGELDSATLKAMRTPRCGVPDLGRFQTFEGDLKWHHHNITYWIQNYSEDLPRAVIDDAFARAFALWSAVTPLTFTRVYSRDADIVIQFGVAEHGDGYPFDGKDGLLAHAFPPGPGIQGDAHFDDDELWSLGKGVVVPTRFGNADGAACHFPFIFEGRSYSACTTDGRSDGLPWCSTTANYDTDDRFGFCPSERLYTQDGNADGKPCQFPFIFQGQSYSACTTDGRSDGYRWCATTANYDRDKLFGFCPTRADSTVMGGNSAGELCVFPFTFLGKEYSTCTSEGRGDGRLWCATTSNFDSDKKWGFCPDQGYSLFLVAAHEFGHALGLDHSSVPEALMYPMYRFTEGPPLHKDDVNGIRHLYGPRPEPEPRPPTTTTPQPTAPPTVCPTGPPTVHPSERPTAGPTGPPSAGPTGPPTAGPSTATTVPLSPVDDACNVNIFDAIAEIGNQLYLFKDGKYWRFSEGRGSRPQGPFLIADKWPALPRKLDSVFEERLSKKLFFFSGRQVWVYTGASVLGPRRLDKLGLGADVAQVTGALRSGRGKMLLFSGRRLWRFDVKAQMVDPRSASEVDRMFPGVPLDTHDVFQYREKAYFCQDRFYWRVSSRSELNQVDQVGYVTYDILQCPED

[3] = biological target: Mitogen-activated protein kinase 14 (Homo sapiens, UniProt Q16539); set-up: species or system Escherichia coli;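 also: inhibition of p38alpha enzyme activity in a biochemical kinase assay, with myelin basic protein serving as substrate; in other assays of this panel Not Active means under 50% inhibition at 10 µM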
Mitogen-activated protein kinase 14, sequence (Q16539 whole entry): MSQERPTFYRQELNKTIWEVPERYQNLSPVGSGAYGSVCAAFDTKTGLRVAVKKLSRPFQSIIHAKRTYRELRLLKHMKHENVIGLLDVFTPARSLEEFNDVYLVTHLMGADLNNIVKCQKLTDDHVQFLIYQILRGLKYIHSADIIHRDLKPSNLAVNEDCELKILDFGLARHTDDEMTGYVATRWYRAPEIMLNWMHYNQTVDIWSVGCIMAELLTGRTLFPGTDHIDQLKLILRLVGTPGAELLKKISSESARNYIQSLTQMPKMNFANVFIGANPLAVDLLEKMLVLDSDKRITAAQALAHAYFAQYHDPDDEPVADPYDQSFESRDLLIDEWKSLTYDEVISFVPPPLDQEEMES

[4] = biological target: 5-hydroxytryptamine receptor 1B (Rattus norvegicus, UniProt P28564); assay type: cell membranes, Wistar, Cerebral cortex, Membrane; details: for Ki: read-out: Ki
5-hydroxytryptamine receptor 1B, sequence (P28564 whole entry): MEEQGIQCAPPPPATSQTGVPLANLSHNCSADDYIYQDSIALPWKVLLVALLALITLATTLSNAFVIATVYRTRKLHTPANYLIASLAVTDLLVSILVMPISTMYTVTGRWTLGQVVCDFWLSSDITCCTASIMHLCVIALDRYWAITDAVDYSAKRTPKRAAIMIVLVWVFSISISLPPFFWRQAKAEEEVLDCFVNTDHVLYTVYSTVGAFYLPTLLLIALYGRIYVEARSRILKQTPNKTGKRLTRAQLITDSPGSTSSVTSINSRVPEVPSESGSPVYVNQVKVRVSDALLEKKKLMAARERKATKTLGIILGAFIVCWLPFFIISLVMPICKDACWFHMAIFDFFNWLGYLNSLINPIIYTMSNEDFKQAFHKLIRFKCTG

D(3) dopamine receptor, sequence (P35462 whole entry): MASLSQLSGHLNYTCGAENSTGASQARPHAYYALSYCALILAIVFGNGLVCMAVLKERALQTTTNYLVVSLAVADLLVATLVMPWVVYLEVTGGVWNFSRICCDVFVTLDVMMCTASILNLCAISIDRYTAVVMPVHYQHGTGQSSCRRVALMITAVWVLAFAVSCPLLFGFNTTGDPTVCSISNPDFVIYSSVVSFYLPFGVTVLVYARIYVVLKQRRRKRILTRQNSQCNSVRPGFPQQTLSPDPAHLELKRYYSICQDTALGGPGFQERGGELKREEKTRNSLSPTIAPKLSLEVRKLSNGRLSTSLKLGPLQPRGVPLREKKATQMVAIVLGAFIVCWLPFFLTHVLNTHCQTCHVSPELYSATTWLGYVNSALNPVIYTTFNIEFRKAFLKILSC

SMILES: Cc1c(C)c2c(c(C)c1O)CCC(C)(CN1CCN(c3cc(N4CCCC4)nc(N4CCCC4)n3)CC1)O2 (stereo not drawn)
- IC50 (D(3) dopamine receptor; read-out: IC50): 5200 nM
- Ki (D(3) dopamine receptor): 1770 nM
- IC50 (Endothelin-1 receptor): Not Active
- IC50 ([1]; kan-ts): Not Active
- IC50 [2]: Not Active
- IC50 ([3]; read-out: IC50): 5.6 µM
- IC50 [4]: Not Active

SMILES: COc1ccc(CCN(C)CCCC(C#N)(c2ccc(OC)c(OC)c2)C(C)C)cc1OC (stereo not drawn)
- IC50 (Endothelin-1 receptor): Not Active
- IC50 ([1]; kan-ts): Not Active
- IC50 [2]: Not Active
- IC50 [3]: Not Active
- IC50 [4]: Not Active

SMILES: CC(C)Cc1ccc([C@@H](C)C(=O)O)cc1 [(R)-IBUPROPHEN]
- IC50 (D(3) dopamine receptor; cho): Not Active
- IC50 (Endothelin-1 receptor): Not Active
- IC50 ([1]; kan-ts): Not Active
- IC50 [2]: Not Active
- IC50 [3]: Not Active
- IC50 [4]: Not Active

SMILES: CN(C)CCOC(c1ccccc1)c1ccccc1 [DIPHENHYDRAMINE]
- IC50 (D(3) dopamine receptor; cho): Not Active
- IC50 (Endothelin-1 receptor): Not Active
- IC50 ([1]; kan-ts): Not Active
- IC50 [2]: Not Active
- IC50 [3]: Not Active
- IC50 [4]: Not Active

SMILES: Clc1ccc(COC(Cn2ccnc2)c2ccc(Cl)cc2Cl)cc1 (stereo not drawn) [ECONAZOLE]
- IC50 (Endothelin-1 receptor): Not Active
- IC50 ([1]; read-out: IC50): 20.1 µM
- Ki ([1]; read-out: Ki): 11 µM
- IC50 ([2]; read-out: IC50): 7 µM
- IC50 [3]: Not Active
- IC50 ([4]; read-out: IC50): 22 µM
- Ki [4]: 10 µM

SMILES: CCN(CC)CCOc1ccc(/C(=C(/Cl)c2ccccc2)c2ccccc2)cc1 [ENCLOMIPHENE]
- IC50 (Endothelin-1 receptor): Not Active
- IC50 ([1]; kan-ts): Not Active
- IC50 [2]: Not Active
- IC50 [3]: Not Active
- IC50 [4]: Not Active

SMILES: Fc1ccc(C(c2ccc(F)cc2)N2CCN(C/C=C/c3ccccc3)CC2)cc1 [FLUNARIZINE]
- IC50 (D(3) dopamine receptor; read-out: IC50): 97 nM
- Ki (D(3) dopamine receptor): 33 nM
- IC50 (Endothelin-1 receptor): Not Active
- IC50 ([1]; kan-ts): Not Active
- IC50 [2]: Not Active
- IC50 [3]: Not Active
- IC50 [4]: Not Active

SMILES: CNCCC(Oc1ccc(C(F)(F)F)cc1)c1ccccc1 (stereo not drawn) [FLUOXETINE]
- IC50 (D(3) dopamine receptor; cho): Not Active
- IC50 (Endothelin-1 receptor): Not Active
- IC50 ([1]; kan-ts): Not Active
- IC50 [2]: Not Active
- IC50 [3]: Not Active
- IC50 [4]: Not Active

SMILES: Cc1ccc(NC(=O)c2ccc(CN3CCN(C)CC3)cc2)cc1Nc1nccc(-c2cccnc2)n1 [IMATINIB]
- IC50 (D(3) dopamine receptor; cho): Not Active
- IC50 (Endothelin-1 receptor): Not Active
- IC50 ([1]; kan-ts): Not Active
- IC50 [2]: Not Active
- IC50 [4]: Not Active

SMILES: CC(C)Oc1ccc2c(=O)c(-c3ccccc3)coc2c1 [IPRIFLAVONE]
- IC50 (D(3) dopamine receptor; cho): Not Active
- IC50 (Endothelin-1 receptor): Not Active
- IC50 ([1]; kan-ts): Not Active
- IC50 [2]: Not Active
- IC50 [3]: Not Active
- IC50 [4]: Not Active

SMILES: CC(C)NCC(O)c1ccc(O)c(O)c1 (stereo not drawn) [ISOPROTERENOL]
- IC50 (D(3) dopamine receptor; cho): Not Active
- IC50 (Endothelin-1 receptor): Not Active
- IC50 ([1]; kan-ts): Not Active
- IC50 [2]: Not Active
- IC50 [3]: Not Active
- IC50 [4]: Not Active

SMILES: CNC1(c2ccccc2Cl)CCCCC1=O (stereo not drawn) [KETAMINE]
- IC50 (D(3) dopamine receptor; cho): Not Active
- IC50 (Endothelin-1 receptor): Not Active
- IC50 ([1]; kan-ts): Not Active
- IC50 [2]: Not Active
- IC50 [3]: Not Active
- IC50 [4]: Not Active

SMILES: N#Cc1ccc(C(c2ccc(C#N)cc2)n2cncn2)cc1 [LETROZOLE]
- IC50 (D(3) dopamine receptor; cho): Not Active
- IC50 (Endothelin-1 receptor): Not Active
- IC50 ([1]; kan-ts): Not Active
- IC50 [2]: Not Active
- IC50 [3]: Not Active
- IC50 [4]: Not Active

SMILES: CCN1CCC[C@H]1CNC(=O)c1cc(S(N)(=O)=O)ccc1OC [LEVOSULPIRIDE]
- IC50 (Endothelin-1 receptor): Not Active
- IC50 ([1]; kan-ts): Not Active
- IC50 [2]: Not Active
- IC50 [3]: Not Active
- IC50 [4]: Not Active

SMILES: CCN(CC)CC(=O)Nc1c(C)cccc1C [LIDOCAINE]
- IC50 (D(3) dopamine receptor; cho): Not Active
- IC50 (Endothelin-1 receptor): Not Active
- IC50 ([1]; kan-ts): Not Active
- IC50 [2]: Not Active
- IC50 [3]: Not Active
- IC50 [4]: Not Active

SMILES: O=C1Nc2ccc(Cl)cc2C(c2ccccc2Cl)=NC1O (stereo not drawn) [LORAZEPAM]
- IC50 (D(3) dopamine receptor; cho): Not Active
- IC50 (Endothelin-1 receptor): Not Active
- IC50 ([1]; kan-ts): Not Active
- IC50 [2]: Not Active
- IC50 [3]: Not Active
- IC50 [4]: Not Active

SMILES: CO[C@@H]1[C@@H](OC)[C@H](C)[C@@](O)(CC(=O)O)O[C@H]1[C@H](C)[C@H]1O[C@@]2(CC[C@@](C)([C@H]3CC[C@@](C)([C@@H]4O[C@@H]([C@H]5O[C@](C)(O)[C@H](C)C[C@@H]5C)C[C@@H]4O[C@@H]4C[C@H](OC)[C@@H](OC)[C@H](C)O4)O3)O2)C[C@H](O)[C@H]1C [MADURAMICIN ACID]
- IC50 (D(3) dopamine receptor; read-out: IC50): 27 nM
- Ki (D(3) dopamine receptor): 9.34 nM
- IC50 (Endothelin-1 receptor): Not Active
- IC50 ([1]; kan-ts): Not Active
- IC50 [2]: Not Active
- IC50 [3]: Not Active
- IC50 ([4]; read-out: IC50): 0.00298 µM
- Ki [4]: 0.00135 µM
